Reference: ChEMBL document CHEMBL2346657, “Synthesis of novel 2-amino-4-(5'-substituted 2'-phenyl-1H-indol-3'-yl)-6-aryl-4H-pyran-3-carbonitrile derivatives as antimicrobial and antioxidant agents” (2013)
Calls of active or inactive are those of the source.

What was measured:
Type in all cases: functional
Klebsiella pneumoniae [1] = assay: Antimicrobial activity against Klebsiella pneumoniae NCTC 13368 at 750 ug/ml after 24 hrs by cup plate method; conditions: NCTC 13368, 24 h, read-out: IZ
Escherichia coli [2] = assay: Antimicrobial activity against Escherichia coli MTCC 723 at 500 ug/ml after 24 hrs by cup plate method; conditions: MTCC 723, 24 h, read-out: IZ
Klebsiella pneumoniae [3] = assay: Antimicrobial activity against Klebsiella pneumoniae NCTC 13368 at 1000 ug/ml after 24 hrs by cup plate method; conditions: NCTC 13368, 24 h, read-out: IZ
Escherichia coli [4] = assay: Antimicrobial activity against Escherichia coli MTCC 723 at 1000 ug/ml after 24 hrs by cup plate method; conditions: MTCC 723, 24 h, read-out: IZ
Aspergillus niger [5] = assay: Antimicrobial activity against Aspergillus niger MTCC 281 at 500 ug/ml after 72 hrs by cup plate method; conditions: MTCC 281, 72 h, read-out: IZ
Klebsiella pneumoniae [6] = assay: Antimicrobial activity against Klebsiella pneumoniae NCTC 13368 at 500 ug/ml after 24 hrs by cup plate method; conditions: NCTC 13368, 24 h, read-out: IZ
Pseudomonas aeruginosa [7] = assay: Antimicrobial activity against Pseudomonas aeruginosa MTCC 1688 at 500 ug/ml after 24 hrs by cup plate method; conditions: MTCC 1688, 24 h, read-out: IZ
Staphylococcus aureus [8] = assay: Antimicrobial activity against Staphylococcus aureus ATCC 29513 at 500 ug/ml after 24 hrs by cup plate method; conditions: ATCC 29513, 24 h, read-out: IZ
[9] = system: Radical scavenging activity; assay: Antioxidant activity assessed as DPPH radical scavenging activity at 75 ug/ml
Pseudomonas aeruginosa [10] = assay: Antimicrobial activity against Pseudomonas aeruginosa MTCC 1688 at 1000 ug/ml after 24 hrs by cup plate method; conditions: MTCC 1688, 24 h, read-out: IZ
Aspergillus terreus [11] = assay: Antimicrobial activity against Aspergillus terreus MTCC 1782 at 1000 ug/ml after 72 hrs by cup plate method; conditions: MTCC 1782, 72 h, read-out: IZ
Pseudomonas aeruginosa [12] = assay: Antimicrobial activity against Pseudomonas aeruginosa MTCC 1688 at 750 ug/ml after 24 hrs by cup plate method; conditions: MTCC 1688, 24 h, read-out: IZ
Aspergillus flavus [13] = assay: Antimicrobial activity against Aspergillus flavus MTCC 1973 at 750 ug/ml after 72 hrs by cup plate method; conditions: MTCC 1973, 72 h, read-out: IZ
Aspergillus niger [14] = assay: Antimicrobial activity against Aspergillus niger MTCC 281 at 1000 ug/ml after 72 hrs by cup plate method; conditions: MTCC 281, 72 h, read-out: IZ
Aspergillus terreus [15] = assay: Antimicrobial activity against Aspergillus terreus MTCC 1782 at 500 ug/ml after 72 hrs by cup plate method; conditions: MTCC 1782, 72 h, read-out: IZ
Staphylococcus aureus [16] = assay: Antimicrobial activity against Staphylococcus aureus ATCC 29513 at 750 ug/ml after 24 hrs by cup plate method; conditions: ATCC 29513, 24 h, read-out: IZ
[17] = Antioxidant activity assessed as metal chelating activity by measuring inhibition of ferrozine-Fe2+ complex formation at 25 to 100 ug/ml
Staphylococcus aureus [18] = assay: Antimicrobial activity against Staphylococcus aureus ATCC 29513 at 1000 ug/ml after 24 hrs by cup plate method; conditions: ATCC 29513, 24 h, read-out: IZ
Aspergillus oryzae [19] = assay: Antimicrobial activity against Aspergillus oryzae MTCC 3567 at 750 ug/ml after 72 hrs by cup plate method; conditions: MTCC 3567, 72 h, read-out: IZ
Aspergillus flavus [20] = assay: Antimicrobial activity against Aspergillus flavus MTCC 1973 at 500 ug/ml after 72 hrs by cup plate method; conditions: MTCC 1973, 72 h, read-out: IZ
Aspergillus oryzae [21] = assay: Antimicrobial activity against Aspergillus oryzae MTCC 3567 at 500 ug/ml after 72 hrs by cup plate method; conditions: MTCC 3567, 72 h, read-out: IZ
Aspergillus flavus [22] = assay: Antimicrobial activity against Aspergillus flavus MTCC 1973 at 1000 ug/ml after 72 hrs by cup plate method; conditions: MTCC 1973, 72 h, read-out: IZ
Aspergillus terreus [23] = assay: Antimicrobial activity against Aspergillus terreus MTCC 1782 at 750 ug/ml after 72 hrs by cup plate method; conditions: MTCC 1782, 72 h, read-out: IZ
Aspergillus niger [24] = assay: Antimicrobial activity against Aspergillus niger MTCC 281 at 750 ug/ml after 72 hrs by cup plate method; conditions: MTCC 281, 72 h, read-out: IZ
Aspergillus oryzae [25] = assay: Antimicrobial activity against Aspergillus oryzae MTCC 3567 at 1000 ug/ml after 72 hrs by cup plate method; conditions: MTCC 3567, 72 h, read-out: IZ
Escherichia coli [26] = assay: Antimicrobial activity against Escherichia coli MTCC 723 at 750 ug/ml after 24 hrs by cup plate method; conditions: MTCC 723, 24 h, read-out: IZ
[27] = Antioxidant activity assessed as ferric ion reducing activity at 25 to 75 ug/ml by FRAP assay

SMILES	zone of inhibition at 750 µg/mL (Klebsiella pneumoniae [1]) [mm]	zone of inhibition at 500 µg/mL (Escherichia coli [2]) [mm]	zone of inhibition at 1000 µg/mL (Klebsiella pneumoniae [3]) [mm]	zone of inhibition at 1000 µg/mL (Escherichia coli [4]) [mm]	zone of inhibition at 500 µg/mL (Aspergillus niger [5]) [mm]	zone of inhibition at 500 µg/mL (Klebsiella pneumoniae [6]) [mm]	zone of inhibition at 500 µg/mL (Pseudomonas aeruginosa [7]) [mm]	zone of inhibition at 500 µg/mL (Staphylococcus aureus [8]) [mm]	zone of inhibition at 1000 µg/mL (Pseudomonas aeruginosa [10]) [mm]	zone of inhibition at 1000 µg/mL (Aspergillus terreus [11]) [mm]	zone of inhibition at 750 µg/mL (Pseudomonas aeruginosa [12]) [mm]	zone of inhibition at 750 µg/mL (Aspergillus flavus [13]) [mm]	zone of inhibition at 1000 µg/mL (Aspergillus niger [14]) [mm]	zone of inhibition at 500 µg/mL (Aspergillus terreus [15]) [mm]	zone of inhibition at 750 µg/mL (Staphylococcus aureus [16]) [mm]	Activity [17]	zone of inhibition at 1000 µg/mL (Staphylococcus aureus [18]) [mm]	zone of inhibition at 750 µg/mL (Aspergillus oryzae [19]) [mm]	zone of inhibition at 500 µg/mL (Aspergillus flavus [20]) [mm]	zone of inhibition at 500 µg/mL (Aspergillus oryzae [21]) [mm]	also measured
Cc1ccc(C2=CC(c3c(-c4ccccc4)[nH]c4ccc(Cl)cc34)c3c(nc4oc(=O)c(C#N)c(N)c4c3N)O2)cc1 (configuration not stated)	8	12	8	9	0	8	2	5	2	3	2	5	3	3	3	Active	3	10	6	10	Activity [9]: Active; zone of inhibition at 1000 µg/mL (Aspergillus flavus [22]): 3 mm; zone of inhibition at 750 µg/mL (Aspergillus terreus [23]): 3 mm; zone of inhibition at 750 µg/mL (Aspergillus niger [24]): 0 mm; zone of inhibition at 1000 µg/mL (Aspergillus oryzae [25]): 10 mm; zone of inhibition at 750 µg/mL (Escherichia coli [26]): 10 mm
Cc1ccc2[nH]c(-c3ccccc3)c(C3C=C(c4ccc(Cl)cc4)Oc4[nH]c(=S)nc(N)c43)c2c1 (configuration not stated)	3	4	5	3	5	5	9	9	9	10	9	3	3	3	9	Active	11	8	3	9	Activity [27]: Active; zone of inhibition at 1000 µg/mL (Aspergillus flavus [22]): 4 mm; zone of inhibition at 750 µg/mL (Aspergillus terreus [23]): 3 mm; zone of inhibition at 750 µg/mL (Aspergillus niger [24]): 5 mm; zone of inhibition at 1000 µg/mL (Aspergillus oryzae [25]): 9 mm; zone of inhibition at 750 µg/mL (Escherichia coli [26]): 3 mm
